The values below come from patent publication US20230265116A1, “DEGRADATION OF (EGFR) BY CONJUGATION OF EGFR INHIBITORS WITH E3 LIGASE LIGAND AND METHODS OF USE” (BEIGENE, LTD., priority 2020, published 2023).

Where two headings read alike, the source gives them in different places.

Experiment [1] addresses T1, EGFR L858R/T790M/C797S (BaF3-LTC cells) (Homo sapiens, UniProt P00533, C797S/L858R/T790M).
T1 construct: expressed in transfected cells; host or cells: BaF3
The experiment in a line: EGFR degradation HTRF assay, BaF3-LTC cells. The experiment is classed as cell-based. The gist of the method: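 EGFR remaining after a 16 h, 37 °C exposure (8 doses, 5-fold steps from 10 uM final, 0.2% DMSO) was quantified by HTRF antibodies in cell lysate. Percent inhibition relative to DMSO control was fitted by four-parameter logistic to give DC50; Dmax denotes maximal degradation.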

Experiment [2] relates to EGFR Del19/T790M/C797S (H1975-clone #28). The experiment in a line: EGFR degradation HTRF assay, H1975-clone #28 DTC cells. The format is cell-based. The gist of the method: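 Cells were dosed on day 2 with an 8-point, 5-fold dilution series starting at 10 uM final and incubated 16h at 37° C. After lysis for 1 hour, HTRF antibodies were added overnight at room temperature and the plate was read at 665/620 nm. Degradation was normalised to DMSO wells and fitted for DC50 and Dmax.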
In general terms: Time-resolved FRET reads energy transfer from a long-lived donor to a nearby acceptor.

Setting [3] is: BaF3-LTC cells; EGFR degradation, IC50 (DC50) from curve fit; read-out: DC50(nM) BaF3-LTC.
[4] abbreviates: BaF3-LTC cells; maximum percentage of inhibition (degradation); read-out: Dmax (%) BaF3-LTC.
[5] abbreviates: H1975 # 28 DTC cells; EGFR degradation, IC50 (DC50) from curve fit; read-out: DC50(nM) H1975 # 28 DTC.
The mark [6] stands for this setting: H1975 # 28 DTC cells; maximum percentage of inhibition (degradation).

T1 sequence (P00533 25-1210 T790M/C797S/L858R): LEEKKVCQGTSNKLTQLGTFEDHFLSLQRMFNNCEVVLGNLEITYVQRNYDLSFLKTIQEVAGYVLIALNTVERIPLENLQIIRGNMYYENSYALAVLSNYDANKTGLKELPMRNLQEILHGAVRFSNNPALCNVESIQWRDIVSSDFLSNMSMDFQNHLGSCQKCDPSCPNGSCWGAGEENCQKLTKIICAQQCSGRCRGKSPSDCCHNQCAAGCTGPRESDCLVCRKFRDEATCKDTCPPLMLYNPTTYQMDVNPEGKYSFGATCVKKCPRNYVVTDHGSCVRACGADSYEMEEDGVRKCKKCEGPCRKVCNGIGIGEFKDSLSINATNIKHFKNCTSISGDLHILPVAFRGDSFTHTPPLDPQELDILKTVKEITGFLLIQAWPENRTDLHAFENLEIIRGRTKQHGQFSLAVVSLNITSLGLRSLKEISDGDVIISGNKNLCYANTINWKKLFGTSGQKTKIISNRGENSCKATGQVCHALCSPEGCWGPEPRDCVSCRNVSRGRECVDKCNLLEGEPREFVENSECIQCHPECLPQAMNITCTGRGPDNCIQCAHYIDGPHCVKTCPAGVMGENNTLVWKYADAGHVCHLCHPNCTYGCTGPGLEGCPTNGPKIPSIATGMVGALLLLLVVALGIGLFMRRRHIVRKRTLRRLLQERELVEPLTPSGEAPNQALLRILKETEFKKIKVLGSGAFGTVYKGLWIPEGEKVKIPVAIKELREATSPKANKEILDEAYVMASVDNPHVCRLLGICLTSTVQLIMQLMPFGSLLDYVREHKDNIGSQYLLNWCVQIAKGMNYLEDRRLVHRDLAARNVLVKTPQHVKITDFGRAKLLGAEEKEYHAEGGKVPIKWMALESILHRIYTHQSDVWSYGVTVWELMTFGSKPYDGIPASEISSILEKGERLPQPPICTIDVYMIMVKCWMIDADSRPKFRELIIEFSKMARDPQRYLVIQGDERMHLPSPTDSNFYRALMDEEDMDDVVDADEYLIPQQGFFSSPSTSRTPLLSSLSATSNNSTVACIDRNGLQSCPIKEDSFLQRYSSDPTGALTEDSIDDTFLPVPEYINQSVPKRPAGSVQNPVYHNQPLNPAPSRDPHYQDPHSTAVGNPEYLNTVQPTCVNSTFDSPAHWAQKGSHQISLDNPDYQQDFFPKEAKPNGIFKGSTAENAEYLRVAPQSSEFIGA

In general, DC50 refers to the concentration giving 50% degradation. Broadly, the Dmax is the largest share of the target that was removed. In the case of `CCc1cc(Nc2ncc(Br)c(Nc3ccc4nc(C)ccc4c3P(C)(C)=O)n2)c(OC)cc1N1CCC(N2CCN(C(=O)C3CCN(c4cc(F)c(C5CCC(=O)NC5=O)c(F)c4)CC3)CC2)CC1` (stereo not drawn) [Example 517, 3-(4-(4-(4-(1-(4-((5-bromo-4-((5-(dimethylphosphoryl)-2-methylquinolin-6-yl)amino)pyrimidin-2-yl)amino)-2-ethyl-5-methoxyphenyl)piperidin-4-yl)piperazine-1-carbonyl)piperidin-1-yl)-2,6-difluorophenyl)piperidine-2,6-dione], the figures for the DC50 in experiment [1] (setting [3]) and in experiment [2] (setting [5]) were 7 nM and 0.968 nM, respectively. In addition, the Dmax in experiment [1] (setting [4]) is 91.3%. For the same molecule, in experiment [2] (setting [6]), the “Dmax (%) H1975 # 28 DTC” value is reported as 58.8%.
Consider `CCc1cc(Nc2ncc(Br)c(Nc3ccc4nc(C)ccc4c3P(C)(C)=O)n2)c(OC)cc1N1CCC(N2CCN(C(=O)C3CN(c4cccc5c4oc(=O)n5C4CCC(=O)NC4=O)C3)CC2)CC1` (stereo not drawn) [Example 519, 3-(7-(3-(4-(1-(4-((5-bromo-4-((5-(dimethylphosphoryl)-2-methylquinolin-6-yl)amino)pyrimidin-2-yl)amino)-2-ethyl-5-methoxyphenyl)piperidin-4-yl)piperazine-1-carbonyl)azetidin-1-yl)-2-oxobenzo[d]oxazol-3(2H)-yl)piperidine-2,6-dione], for which the DC50 in experiment [1] (read-out: DC50(nM) BaF3-LTC; BaF3-LTC cells; EGFR degradation, IC50 (DC50) from curve fit) is 1.19 nM; in experiment [2] (read-out: DC50(nM) H1975 # 28 DTC; H1975 # 28 DTC cells; EGFR degradation, IC50 (DC50) from curve fit), 0.378 nM. Moreover, the Dmax in experiment [1] (read-out: Dmax (%) BaF3-LTC, BaF3-LTC cells; maximum percentage of inhibition (degradation)) stood at 92.1%. Besides, the “Dmax (%) H1975 # 28 DTC” value in experiment [2] (setting [6]) came out at 74.38%.
As to `CCc1cc(Nc2ncc(Br)c(Nc3ccc4c(=O)n(C)ncc4c3P(C)(C)=O)n2)c(OC)cc1N1CCC(N2CCN(C(=O)C3CN(c4cc(F)c(C5CCC(=O)NC5=O)c(F)c4)C3)CC2)CC1` (stereo not drawn) [Example 520, 3-(4-(3-(4-(1-(4-((5-bromo-4-((5-(dimethylphosphoryl)-2-methyl-1-oxo-1,2-dihydrophthalazin-6-yl)amino)pyrimidin-2-yl)amino)-2-ethyl-5-methoxyphenyl)piperidin-4-yl)piperazine-1-carbonyl)azetidin-1-yl)-2,6-difluorophenyl)piperidine-2,6-dione], the DC50 in experiment [1] (setting [3]) was found to be 5.66 nM; in experiment [2] (setting [5]), 0.769 nM. The Dmax in experiment [1] (setting [4]) came to 90.1%. The “Dmax (%) H1975 # 28 DTC” value in experiment [2] (setting [6]) is given as 73.99%.
Regarding `CCc1cc(Nc2ncc(Br)c(Nc3ccc4c(=O)n(C5CC5)ncc4c3P(C)(C)=O)n2)c(OC)cc1N1CCC(N2CCN(CCc3ccc4c(c3)oc(=O)n4C3CCC(=O)NC3=O)CC2)CC1` (stereo not drawn) [Example 522, 3-(6-(2-(4-(1-(4-((5-bromo-4-((2-cyclopropyl-5-(dimethylphosphoryl)-1-oxo-1,2-dihydrophthalazin-6-yl)amino)pyrimidin-2-yl)amino)-2-ethyl-5-methoxyphenyl)piperidin-4-yl)piperazin-1-yl)ethyl)-2-oxobenzo[d]oxazol-3(2H)-yl)piperidine-2,6-dione], the DC50 came out at 1.43 nM in experiment [1] (setting [3]) and 0.611 nM in experiment [2] (setting [5]). For the same molecule, the Dmax in experiment [1] (setting [4]) is 95.3%. Besides, the “Dmax (%) H1975 # 28 DTC” value in experiment [2] (setting [6]) is listed as 75.25%.
On to `CCc1cc(Nc2ncc(Br)c(Nc3ccc4c(=O)n(C)ncc4c3P(C)(C)=O)n2)c(OC)cc1N1CCC(N2CCN(CCc3ccc4c(c3)oc(=O)n4C3CCC(=O)NC3=O)CC2)CC1` (stereo not drawn) [Example 523, 3-(6-(2-(4-(1-(4-((5-bromo-4-((5-(dimethylphosphoryl)-2-methyl-1-oxo-1,2-dihydrophthalazin-6-yl)amino)pyrimidin-2-yl)amino)-2-ethyl-5-methoxyphenyl)piperidin-4-yl)piperazin-1-yl)ethyl)-2-oxobenzo[d]oxazol-3(2H)-yl)piperidine-2,6-dione], for which the DC50 amounted to 1.97 nM in experiment [1] (setting [3]) and 0.571 nM in experiment [2] (setting [5]). The Dmax in experiment [1] (setting [4]) turned out to be 95.9%. Further, the “Dmax (%) H1975 # 28 DTC” value in experiment [2] (setting [6]) was found to be 72.16%.
As to `CCc1cc(Nc2ncc(Br)c(Nc3ccc4nc(C)ccc4c3P(C)(C)=O)n2)c(OC)cc1N1CCC(N2CCN(C[C@H]3CCN(c4ccc5c(c4)oc(=O)n5C4CCC(=O)NC4=O)C3)CC2)CC1` (stereo partly drawn) [Example 525, 3-(6-((R)-3-((4-(1-(4-((5-bromo-4-((5-(dimethylphosphoryl)-2-methylquinolin-6-yl)amino)pyrimidin-2-yl)amino)-2-ethyl-5-methoxyphenyl)piperidin-4-yl)piperazin-1-yl)methyl)pyrrolidin-1-yl)-2-oxobenzo[d]oxazol-3(2H)-yl)piperidine-2,6-dione], the DC50 in experiment [1] (setting [3]) turned out to be 2.6 nM; in experiment [2] (setting [5]), 0.691 nM. In addition, the Dmax in experiment [1] (setting [4]) was 94.3%. Also, the “Dmax (%) H1975 # 28 DTC” value in experiment [2] (setting [6]) is reported as 50.86%.
For `COc1cc(N2CCC(N3CCN(C(=O)[C@@H]4CCN(c5cc(F)c([C@H]6CCC(=O)NC6=O)c(F)c5)C4)CC3)CC2)c(C)cc1Nc1ncc(Br)c(Nc2ccc3c(=O)n(C)ncc3c2P(C)(C)=O)n1` [Example 527, (R)-3-(4-((R)-3-(4-(1-(4-((5-bromo-4-((5-(dimethylphosphoryl)-2-methyl-1-oxo-1,2-dihydrophthalazin-6-yl)amino)pyrimidin-2-yl)amino)-5-methoxy-2-methylphenyl)piperidin-4-yl)piperazine-1-carbonyl)pyrrolidin-1-yl)-2,6-difluorophenyl)piperidine-2,6-dione], the results for the DC50 in experiment [1] (setting [3]) and in experiment [2] (setting [5]) were 1.77 nM and 0.583 nM, respectively. Also, the Dmax in experiment [1] (setting [4]) was determined as 93.4%. Besides, the “Dmax (%) H1975 # 28 DTC” value in experiment [2] (setting [6]) is 85.27%.
As for `CCOc1cc(N2CCC(N3CCN(C(=O)[C@@H]4CCN(c5cc(F)c([C@H]6CCC(=O)NC6=O)c(F)c5)C4)CC3)CC2)c(C)cc1Nc1ncc(Br)c(Nc2ccc3c(=O)n(C)ncc3c2P(C)(C)=O)n1` [Example 529, (R)-3-(4-((R)-3-(4-(1-(4-((5-bromo-4-((5-(dimethylphosphoryl)-2-methyl-1-oxo-1,2-dihydrophthalazin-6-yl)amino)pyrimidin-2-yl)amino)-5-ethoxy-2-methylphenyl)piperidin-4-yl)piperazine-1-carbonyl)pyrrolidin-1-yl)-2,6-difluorophenyl)piperidine-2,6-dione], the DC50 in experiment [1] (setting [3]) came to 5.8 nM; in experiment [2] (setting [5]), 1.03 nM. Moreover, the Dmax in experiment [1] (setting [4]) is 91.9%. In experiment [2] (setting [6]), the “Dmax (%) H1975 # 28 DTC” value is 85.06%.
For the molecule `CCOc1cc(N2CCC(N3CCN(C(=O)[C@@H]4CCN(c5cc(F)c([C@H]6CCC(=O)NC6=O)c(F)c5)C4)CC3)CC2)c(CC)cc1Nc1ncc(Br)c(Nc2ccc3c(=O)n(C)ncc3c2P(C)(C)=O)n1` [Example 530, (R)-3-(4-((R)-3-(4-(1-(4-((5-bromo-4-((5-(dimethylphosphoryl)-2-methyl-1-oxo-1,2-dihydrophthalazin-6-yl)amino)pyrimidin-2-yl)amino)-5-ethoxy-2-ethylphenyl)piperidin-4-yl)piperazine-1-carbonyl)pyrrolidin-1-yl)-2,6-difluorophenyl)piperidine-2,6-dione], the results for the DC50 in experiment [1] (setting [3]) and in experiment [2] (setting [5]) were 5.05 nM and 1.87 nM, respectively. Moreover, the Dmax in experiment [1] (setting [4]) was 94.6%. For the same molecule, the “Dmax (%) H1975 # 28 DTC” value in experiment [2] (setting [6]) was 82.54%.
For `CCOc1cc(N2CCC(N3CCN(CC4CN(c5cc(F)c(C6CCC(=O)NC6=O)c(F)c5)C4)CC3)CC2)c(CC)cc1Nc1ncc(Br)c(Nc2ccc3c(=O)n(C)ncc3c2P(C)(C)=O)n1` (stereo not drawn) [Example 535, 3-(4-(3-((4-(1-(4-((5-bromo-4-((5-(dimethylphosphoryl)-2-methyl-1-oxo-1,2-dihydrophthalazin-6-yl)amino)pyrimidin-2-yl)amino)-5-ethoxy-2-ethylphenyl)piperidin-4-yl)piperazin-1-yl)methyl)azetidin-1-yl)-2,6-difluorophenyl)piperidine-2,6-dione], in that order: 9.87 nM, 1.13 nM, 93.8% and 82.79%.
`CCc1cc(Nc2ncc(Br)c(Nc3cc(F)c4nc(C)ccc4c3P(C)(C)=O)n2)c(OC)cc1N1CCC(N2CCN(CCc3ccc4c(c3)oc(=O)n4C3CCC(=O)NC3=O)CC2)CC1` (stereo not drawn) [Example 536, 3-(6-(2-(4-(1-(4-((5-bromo-4-((5-(dimethylphosphoryl)-8-fluoro-2-methylquinolin-6-yl)amino)pyrimidin-2-yl)amino)-2-ethyl-5-methoxyphenyl)piperidin-4-yl)piperazin-1-yl)ethyl)-2-oxobenzo[d]oxazol-3(2H)-yl)piperidine-2,6-dione]: the DC50 in experiment [1] (setting [3]) is 0.867 nM; in experiment [2] (setting [5]), 0.582 nM. In addition, the Dmax in experiment [1] (setting [4]) worked out at 96.3%. Moreover, the “Dmax (%) H1975 # 28 DTC” value in experiment [2] (setting [6]) is on record as 73.22%.
Regarding `CCc1cc(Nc2ncc(Br)c(Nc3ccc4nc(C)ccc4c3P(C)(C)=O)n2)c(OC)cc1N1CCC(N2CCN(CC3CN(c4ccc5c(c4)oc(=O)n5C4CCC(=O)NC4=O)C3)CC2)CC1` (stereo not drawn) [Example 537, 3-(6-(3-((4-(1-(4-((5-bromo-4-((5-(dimethylphosphoryl)-2-methylquinolin-6-yl)amino)pyrimidin-2-yl)amino)-2-ethyl-5-methoxyphenyl)piperidin-4-yl)piperazin-1-yl)methyl)azetidin-1-yl)-2-oxobenzo[d]oxazol-3(2H)-yl)piperidine-2,6-dione], the DC50 in experiment [1] (setting [3]) amounted to 0.934 nM; in experiment [2] (setting [5]), 0.223 nM. For the same molecule, the Dmax in experiment [1] (setting [4]) is 94%. In experiment [2] (setting [6]), the “Dmax (%) H1975 # 28 DTC” value is 65.01%.
